Reference: the Kinase Knowledgebase extract (Sharma et al. 2016)

The molecules below were run against EGFR (mouse) (UniProt P00533). Conditions: swiss 3t3 membrane.

IC50 | Compound
> 30 µM | COc1ccc(OC)c2nc(Cl)c(-c3ccccc3)cc12
30 µM | N#C/C(=C\c1c[nH]c2ccccc12)C(=O)c1ccc(O)c(O)c1

Compound | IC50
N#CC(C#N)=C(N)/C(C#N)=C/c1c[nH]c2ccccc12 | > 300 µM
